Columns and labels:
Assay in all cases: KiNativ profiling in human PBMCs
Type in all cases: binding
Wnk1,Wnk2,Wnk3 = conditions: Lys2
In short: (§1)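 Live human peripheral blood mononuclear cells were treated with compound at 1 µM and 0.1 µM, then kinase engagement was profiled by the KiNativ procedure.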

PRPK = system: T1, PRPK; conditions: ATP Loop
T1 construct: purchased ActivX Technologies (KiNativ)
In short: as §1

RSK2 domain1 = system: T2, RSK2 domain1
T2 construct: RSK2 domain1; purchased ActivX Technologies (KiNativ)
In short: as §1

MAP3K1 = system: T3, MAP3K1; conditions: Lys2
T3 construct: purchased ActivX Technologies (KiNativ)
In short: as §1

Erk1 = system: T4, Erk1; conditions: Lys2
T4 construct: purchased ActivX Technologies (KiNativ)
In short: as §1

p70S6K,p70S6Kb = conditions: ATP Loop
In short: as §1

PFTAIRE1 = system: T5, PFTAIRE1; conditions: Lys1
T5 construct: purchased ActivX Technologies (KiNativ)
In short: as §1

IKKa = system: T6, IKKa; conditions: Lys2
T6 construct: purchased ActivX Technologies (KiNativ)
In short: as §1

LYN = system: T7, LYN
T7 construct: purchased ActivX Technologies (KiNativ)
In short: as §1

CDC2 = system: T8, CDC2; conditions: Lys2
T8 construct: purchased ActivX Technologies (KiNativ)
In short: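 Target engagement in cells was measured using KiNativ chemistry following treatment of live human PBMCs with each compound at concentrations of 1 µM and 0.1 µM.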

SYK = system: T9, SYK
T9 construct: purchased ActivX Technologies (KiNativ)
In short: as §1

MAP3K15,MAP3K5,MAP3K6 = conditions: Lys1
In short: as §1

DGKA = system: T10, DGKA; conditions: ATP
T10 construct: purchased ActivX Technologies (KiNativ)
In short: as §1

HPK1 = system: T11, HPK1
T11 construct: purchased ActivX Technologies (KiNativ)
In short: as §1

PIP4K2A = system: T12, PIP4K2A; conditions: ATP
T12 construct: purchased ActivX Technologies (KiNativ)
In short: as §1

Erk2 = system: T13, Erk2; conditions: Lys2
T13 construct: purchased ActivX Technologies (KiNativ)
In short: as §1

IRAK1 = system: T14, IRAK1; conditions: Lys2
T14 construct: purchased ActivX Technologies (KiNativ)
In short: as §1

NEK6,NEK7 = conditions: Lys2
In short: as §1

TAK1 = system: T15, TAK1; conditions: Lys2
T15 construct: purchased ActivX Technologies (KiNativ)
In short: as §1

ILK = system: T16, ILK
T16 construct: purchased ActivX Technologies (KiNativ)
In short: as §1

LATS1 = system: T17, LATS1
T17 construct: purchased ActivX Technologies (KiNativ)
In short: as §1

CDK11,CDK8 = conditions: Lys2
In short: as §1

GCK = system: T18, GCK
T18 construct: purchased ActivX Technologies (KiNativ)
In short: as §1

MAP3K2 = system: T19, MAP3K2; conditions: Lys1
T19 construct: purchased ActivX Technologies (KiNativ)
In short: as §1

LCK = system: T20, LCK; conditions: 1µM; Activation Loop
T20 construct: purchased ActivX Technologies (KiNativ)
In short: as §1

FYN,SRC,YES = conditions: Activation Loop
In short: as §1

MST2 = system: T21, MST2; conditions: 1µM; Lys1
T21 construct: purchased ActivX Technologies (KiNativ)
In short: as §1

NDR1 = system: T22, NDR1
T22 construct: purchased ActivX Technologies (KiNativ)
In short: as §1

ABL,ARG = conditions: Activation Loop
In short: as §1

NEK7 = system: T23, NEK7; conditions: Lys1
T23 construct: purchased ActivX Technologies (KiNativ)
In short: as §1

GCN2 = system: T24, GCN2; conditions: Lys2
T24 construct: purchased ActivX Technologies (KiNativ)
In short: as §1

PIP4K2C = system: T25, PIP4K2C; conditions: ATP
T25 construct: purchased ActivX Technologies (KiNativ)
In short: as §1

SNRK = system: T26, SNRK; conditions: Lys2
T26 construct: purchased ActivX Technologies (KiNativ)
In short: as §1

smMLCK = system: T27, smMLCK
T27 construct: purchased ActivX Technologies (KiNativ)
In short: as §1

MST1 = system: T28, MST1; conditions: Lys1
T28 construct: purchased ActivX Technologies (KiNativ)
In short: as §1

## Cc1cccc(-c2cc(Nc3ccn(C)n3)nc3[nH]cc(C#N)c23)c1 [Lu AF58786]
Wnk1,Wnk2,Wnk3; 0.1µM
  Inhibition: 10.5%
Wnk1,Wnk2,Wnk3; 1µM
  Inhibition: -5.4%
PRPK; 0.1µM
  Inhibition: 1.0%
PRPK; 1µM
  Inhibition: 8.9%
RSK2 domain1; 0.1µM, ATP Loop
  Inhibition: 26.3%
RSK2 domain1; 0.1µM, Activation Loop
  Inhibition: 16.6%
RSK2 domain1; 0.1µM, Lys2
  Inhibition: 1.6%
RSK2 domain1; 1µM, ATP Loop
  Inhibition: 13.9%
RSK2 domain1; 1µM, Activation Loop
  Inhibition: 32.7%
RSK2 domain1; 1µM, Lys2
  Inhibition: 27.1%
MAP3K1; 0.1µM
  Inhibition: 9.1%
MAP3K1; 1µM
  Inhibition: 0.247%
Erk1; 0.1µM
  Inhibition: 2.3%
Erk1; 1µM
  Inhibition: 1.5%
p70S6K,p70S6Kb; 0.1µM
  Inhibition: 3.7%
p70S6K,p70S6Kb; 1µM
  Inhibition: -2.7%
PFTAIRE1; 0.1µM
  Inhibition: 5.8%
PFTAIRE1; 1µM
  Inhibition: -10.2%
IKKa; 0.1µM
  Inhibition: 9.8%
IKKa; 1µM
  Inhibition: 6.8%
LYN; 0.1µM, Activation Loop
  Inhibition: -18.7%
LYN; 0.1µM, Lys1
  Inhibition: -21.4%
LYN; 1µM, Activation Loop
  Inhibition: 1.0%
LYN; 1µM, Lys1
  Inhibition: -4.5%
CDC2; 0.1 µM, DLKPQNLLIDDK
  Inhibition: -19.4%
CDC2; 0.1 µM, DLKPQNLLIDDKGTIK
  Inhibition: 5.9%
CDC2; 1 µM, DLKPQNLLIDDK
  Inhibition: -27.3%
CDC2; 1 µM, DLKPQNLLIDDKGTIK
  Inhibition: 6.8%
SYK; 0.1µM, Activation Loop
  Inhibition: 8.3%
SYK; 0.1µM, Lys1
  Inhibition: 12.8%
SYK; 1µM, Lys1
  Inhibition: -5.9%
MAP3K15,MAP3K5,MAP3K6; 0.1µM
  Inhibition: 12.0%
MAP3K15,MAP3K5,MAP3K6; 1µM
  Inhibition: 11.6%
DGKA; 0.1µM
  Inhibition: 1.1%
DGKA; 1µM
  Inhibition: -1.9%
HPK1; 0.1µM, Lys2
  Inhibition: 13.0%
HPK1; 1µM, Lys1
  Inhibition: 8.1%
HPK1; 1µM, Lys2
  Inhibition: 21.1%
PIP4K2A; 0.1µM
  Inhibition: -4.0%
PIP4K2A; 1µM
  Inhibition: -14.7%
Erk2; 0.1µM
  Inhibition: 2.4%
Erk2; 1µM
  Inhibition: 1.7%
IRAK1; 0.1µM
  Inhibition: 3.0%
IRAK1; 1µM
  Inhibition: 1.7%
NEK6,NEK7; 0.1µM
  Inhibition: 15.4%
NEK6,NEK7; 1µM
  Inhibition: -5.8%
TAK1; 0.1µM
  Inhibition: 21.8%
TAK1; 1µM
  Inhibition: -11.4%
ILK; 0.1µM, Lys1
  Inhibition: 2.8%
ILK; 0.1µM, Protein Kinase Domain
  Inhibition: -27.2%
ILK; 1µM, Lys1
  Inhibition: 5.7%
ILK; 1µM, Protein Kinase Domain
  Inhibition: -1.7%
LATS1; 0.1µM, Lys1
  Inhibition: 5.7%
LATS1; 0.1µM, Lys2
  Inhibition: -2.7%
LATS1; 1µM, Lys1
  Inhibition: 11.6%
CDK11,CDK8; 0.1µM
  Inhibition: -20.3%
CDK11,CDK8; 1µM
  Inhibition: -2.0%
GCK; 0.1µM, Lys1
  Inhibition: 14.1%
GCK; 0.1µM, Lys2
  Inhibition: 16.9%
GCK; 1µM, Lys1
  Inhibition: 5.5%
GCK; 1µM, Lys2
  Inhibition: -3.1%
MAP3K2; 0.1µM
  Inhibition: 26.8%
MAP3K2; 1µM
  Inhibition: 18.5%
LCK
  Inhibition: 5.7%
FYN,SRC,YES; 0.1µM
  Inhibition: -6.7%
FYN,SRC,YES; 1µM
  Inhibition: -2.5%
MST2
  Inhibition: 11.8%
NDR1; 0.1µM, Lys1
  Inhibition: 0.33%
NDR1; 0.1µM, Lys2
  Inhibition: 16.5%
NDR1; 1µM, Lys1
  Inhibition: -11.0%
NDR1; 1µM, Lys2
  Inhibition: 0.751%
ABL,ARG; 0.1µM
  Inhibition: -81.9%
ABL,ARG; 1µM
  Inhibition: -7.3%
NEK7; 0.1µM
  Inhibition: -17.5%
NEK7; 1µM
  Inhibition: 16.7%
GCN2; 0.1µM
  Inhibition: -20.3%
GCN2; 1µM
  Inhibition: -15.5%
PIP4K2C; 0.1µM
  Inhibition: 19.6%
PIP4K2C; 1µM
  Inhibition: 31.1%
SNRK; 0.1µM
  Inhibition: 22.5%
SNRK; 1µM
  Inhibition: 15.1%
smMLCK; 0.1µM, Lys1
  Inhibition: 1.6%
smMLCK; 0.1µM, Lys2
  Inhibition: 3.0%
smMLCK; 1µM, Lys1
  Inhibition: 18.7%
smMLCK; 1µM, Lys2
  Inhibition: -2.1%
MST1; 0.1µM
  Inhibition: 26.2%
MST1; 1µM
  Inhibition: 19.0%
